Test results: patent publication US9408845B2, “Formulations containing pyridazine compounds” (Northwestern University, priority 2006, dated 2016)
Entries after “also recorded” stand apart in the source; their conditions may differ. Read-outs that look alike come from different tables or passages of the source.

Assays:
liver histology, mice = test: Chronic, therapeutic dose liver toxicity assay
Description: (§1) Mice will be anesthetized and sacrificed as described above. Livers will be removed, fixed in 4% (v/v) paraformaldehyde and paraffin-embedded for histology. To assess histological toxicity, 4 μm liver sections will be stained with haematoxylin and eosin. Two independent observers blinded to the treatment groups will perform microscopic assessment of the tissue for injury.
After two weeks of treatment, mice are sacrificed and liver toxicity analyzed as described above. For each chronic toxicity assay, 5 mg of compound is required.
as §1, with “were” for “will be”, “killed” for “sacrificed”, “paraformaldehyde,” for “paraformaldehyde”, “pan” for “μm”, “hematoxylin” for “haematoxylin”, “performed” for “will perform”

[1] = system: nitric oxide (NO) production in BV-2 microglial cells; test: LPS-stimulated accumulation of nitrite (NO metabolite) in BV-2 cells, Griess assay; type: cell-based, mouse; settings: Mus musculus, read-out: NO, concentration required for 50% inhibition
[2] = mouse, in vivo
[3] = system: human Aβ infusion mouse model; test: Human Aβ infusion mouse model, hippocampal neuroinflammation and synaptic biochemical endpoints; type: in vivo; settings: hippocampus, Aβ-infused mice, oral compound
Description: The study design and treatment paradigm for intracerebroventricular (ICV) infusion of human oligomerie Aβ1-42 into the mouse will be as described previously (Craft et al., Neurobiol Aging 25:1283-1292, 2004b), except that compound administration will be by mouth. Female C57Bl/6 mice (Harlan) weighing 20-25 g (3-4 months old) will be housed in a pathogen free facility under an approximate 12 h/12 h dark and light cycle and they will have access ad libitum to food and water.
(§2) Once per day treatment will begin at day 21 after start of Aβ ICV infusion and continue for 14 days. Beginning at day 50 after start of Aβ ICV infusion, the Y maze test of spontaneous alternation will be used to evaluate hippocampus dependent spatial learning as described previously (Craf et al., J Mol. Neurosci. 24:115-122, 2004a). Briefly, each mouse will be placed in the “start” arm and then released to choose one of the two other arms. The mouse will be blocked from exiting the chosen arm for 30 s then they will be placed back in the start arm and released again to choose one of the two other arms. If the second choice is different from the first one, the mouse will be scored as alternating. Mice will be tested for 10 days with one trial per day, and a mean percent alternation will be calculated for each mouse. […] The brain will be removed and longitudinally bisected as described previously (Craft et al., Neurobiolo Aging 25:12834292, 2004b). […] The hippocampus will be dissected from the left half of the brain and snap-frozen for subsequent biochemical evaluation.
S100B levels in hippocampal supernatants will be measured by a empium-based ELISA essentially as previously described (Van Eldik and Griffin, Biochem Biophys Acta 1223:398-403, 1994). Synaptophysin levels in hippocampal supernatants will be quantified by ELISA following the procedure described previously (Craft at al, 20041, supra). PSD-95 levels will be determined by Western blots using anti-PSD-95 antibodies (1:100,000 dilution; Upstate Biotechnology) as described (Craft et al., 2004b).
It was previously shown that Aβ-induced neuroinflammation is an early event associated with the onset and progression of pathophysiology, and can be suppressed by an inhibitor of glial activation. Female C57Bl/6 mice (Harlan) weighing […] (3-4 months old) were housed in a pathogen free facility under an approximate 12 h/12 h dark and light cycle and had access ad libitum to food and water. All animal procedures were approved by the Northwestern Animal Care and Use Committee.

[4] = system: human Aβ infusion mouse model; test: Human Aβ infusion mouse model, Y maze behavioral assay; type: in vivo; settings: 1.25, 2.5, 5, and 10 mg/kg
Description: as §2

[5] = system: QT interval in Lead II electrocardiogram, anesthetized guinea pigs; test: Cardiac QT interval prolongation assay in anesthetized guinea pigs; settings: 15 mg/kg PO
Description: The QT interval studies are performed by evaluating compounds for effects on QT interval in Lead II electrocardiograms measured in anesthetized guinea pigs (Hirohashi et al., 1991, Arzneim.-Forsch./Drug Res 41:9-18), one of the species recommended in the FDA white paper. Vehicle or compound is administered orally at 15 mg/kg (dosing volume of 10 ml/kg) to groups of male guinea pigs (weighing 330-350 g), with 5 animals per group. […] Heart rate, arterial blood pressure, and QT intervals are measured at baseline, and at 15, 30, 45, and 60 min after compound administration. Sotalol administered iv at 0.3 mg/kg serves as the positive control compound. The QT intervals are corrected for changes in heart rate using both Bazetes and Fridericia's formulae. Any increase in QT interval values over baseline values exceeding the upper 95% confidence limit of the mean changes at the corresponding time point in the vehicle-treated control group for two consecutive observation times indicates significant QT interval prolongation in the individually treated animals.
The QT intervals (QTc) were corrected for changes in heart rate using both Bazett's and Fridericia's formulae.
The test substance was dissolved in 2% Tween 80 and administered by oral administration. The substance was treated at 15 mg/kg with a dosing volume of 10 ml/kg. Duncan Hartley derived guinea pigs provided by MDS Pharma Services—Taiwan Ltd were used. Sotalol was obtained from Sigma, USA.
Groups of guinea pigs (weighing 330-350 g) with 5 animals each were employed. The animals were anesthetized with urethane (1500 mg/kg, IV bolus injection in a volume of 5 ml/kg) and breathed spontaneously. Lead II ECG was obtained with subdermal needle electrodes and ECG signal conditioner. Heart rate was measured with a pulse rate tachometer. The carotid artery was cannulated with a catheter that was connected to a pressure transducer and a pressure processor for measurements of arterial blood pressure (BP). […] QTC intervals were obtained by correction for heart rate changes using Bazett's and Fridericia's formulae. Increase in QTc interval in individual treated guinea pigs that lies outside the upper limit of 95% confidence limits (mean±SD) of the changes for the vehicle-treated control at corresponding time points for two consecutive times is considered significant.

[6] = system: LPS-induced IL-1β production in BV-2 microglia cells; test: LPS-induced IL-1β production in BV-2 microglial cells; settings: Mus musculus, BV-2, 16 h, read-out: IL-1β, concentration required for 50% inhibition
[7] = Caccia et al., 1985; cited from earlier work

Row | SMILES | liver toxicity score versus control mice (liver histology, mice; mouse, in vivo, po, […]) | loss of PSD-95 [3] | loss of synaptophysin [3] | up-regulation of IL-1β [3] | up-regulation of S100B [3] | prevention of Y-maze behavioral deficit [4] | other results
1 | c1ccc(-c2cc(-c3ccccc3)c(N3CCN(c4ncccn4)CC3)nn2)cc1 [MW01-5-188WH, 4,6-diphenyl-3-(4-pyrimidin-2-ylpiperazin-1-yl)pyridazine] | no significant differences | – | – | – | – | – | IC50 ([1]; BV-2, 16 h): > 25 µM; oral bioavailability properties [2]: good oral bioavailability; time of decline to basal levels / bulk clearance, plasma/blood ([2]; po): ≤ 120 min
2 | Cc1cc(-c2ccccc2)nnc1N1CCN(c2ncccn2)CC1 [MW01-2-151SRM, 4-methyl-6-phenyl-3-(4-pyrimidin-2-ylpiperazin-1-yl)pyridazine] | no significant differences | prevented | prevented | blocked | blocked | significantly effective | IC50 ([1]; LPS-stimulated BV-2 cells, 16 hrs): > 25 µM; effect on heart rate [5]: no significant effects; effect on mean blood pressure [5]: no significant effects; QTc / QT interval prolongation ([5]; 60 min post-dosing, 5 guinea pigs): did not cause any significant prolongation; also recorded: Neither compound increased; IC50 [6]: 8.3 ± 5.8 µM
3 | c1ccc(-c2cc(-c3ccncc3)c(N3CCN(c4ncccn4)CC3)nn2)cc1 [MW01-6-189WH, 4-pyridyl-6-phenyl-3-(4-pyrimidin-2-ylpiperazin-1-yl)pyridazine] | – | prevented | trend toward preventing | blocked | blocked | significantly effective | liver toxicity score versus control mice (liver histology, mice; C57Bl/6 mice, […] oral, 2 weeks, scale 0 (best) to 9 (worst)): no significant differences
4 | Cc1cc(-c2ccccc2)nnc1NCCN1CCOCC1 [minaprinc, minaprine] | – | – | – | – | – | – | brain/blood ratio [7]: about 2
